Source: paper PMC3062741 (Behavioural brain research, 2011)

Tested on: Male Sprague-Dawley rats
Assay: Locomotor activity
Format: in vivo, rat
Conditions: for Locomotor Activity Day 1, mean distance traveled: 60-min session

Which results are given for `COC(=O)C(c1ccccc1)C1CCCCN1` (stereo not drawn) [MPD, Methylphenidate]?
time course of locomotor activity compared to saline-treated rats (Day 1, EC rats, MPD 3 mg/kg): significantly greater during the 25–60-min intervals; time course of locomotor activity compared to saline-treated rats (Day 1, EC rats, MPD 10 mg/kg): significantly greater during the 20–60-min intervals; time course of locomotor activity compared to saline-treated rats (Day 1, IC rats, MPD 3 mg/kg): significantly greater during the 30-, 50- and 60-min intervals; time course of locomotor activity compared to saline-treated rats (Day 1, IC rats, MPD 10 mg/kg): significantly greater during the 15–60-min intervals; time course of locomotor activity compared to saline-treated rats (Day 1, SC rats, MPD 3 mg/kg): more active than saline-treated SC rats during the 30–60-min time intervals; time course of locomotor activity compared to saline-treated rats (Day 1, SC rats, MPD 10 mg/kg): more active than saline-treated SC rats during the 15–60-min time intervals; time course of locomotor activity compared to saline-treated rats (Day 10, EC rats, MPD 3 mg/kg): only IC rats treated with 3 mg/kg of MPD displayed greater activity; time course of locomotor activity compared to saline-treated rats (Day 10, EC rats, MPD 10 mg/kg): more active than the saline controls during each time interval; time course of locomotor activity compared to saline-treated rats (Day 10, IC rats, MPD 3 mg/kg): significantly greater activity in IC rats relative to saline controls beginning at the 30-min time interval; time course of locomotor activity compared to saline-treated rats (Day 10, IC rats, MPD 10 mg/kg): more active than the saline controls during each time interval except the 5-min interval in the IC group; time course of locomotor activity compared to saline-treated rats (Day 10, SC rats, MPD 3 mg/kg): more active than saline-treated SC rats during the 10–60-min time intervals; time course of locomotor activity compared to saline-treated rats (Day 10, SC rats, MPD 10 mg/kg): more active than saline-treated SC rats during the 10–60-min time intervals; total locomotor activity across Days 1–10 compared with Day 1 (EC rats, MPD 3 mg/kg once daily): greater locomotor activity on Day 2 than on Day 1; Locomotor Activity Day 10, mean distance traveled (EC rats, MPD 3 mg/kg s.c. once daily): 4438 cm; Locomotor Activity Day 1, mean distance traveled (EC rats, MPD 3 mg/kg s.c.): 9482 cm; total locomotor activity across Days 1–10 compared with Day 1 (EC rats, MPD 10 mg/kg once daily): greater locomotor activity on Days 4, 5 and 10 than on Day 1; Locomotor Activity Day 10, mean distance traveled (EC rats, MPD 10 mg/kg s.c. once daily): 29196 cm; Locomotor Activity Day 1, mean distance traveled (EC rats, MPD 10 mg/kg s.c.): 15665 cm; total locomotor activity across Days 1–10 compared with Day 1 (IC rats, MPD 3 mg/kg once daily): greater locomotor activity on Days 2–9 than on Day 1; Locomotor Activity Day 10, mean distance traveled (IC rats, MPD 3 mg/kg s.c. once daily): 13980 cm; Locomotor Activity Day 1, mean distance traveled (IC rats, MPD 3 mg/kg s.c.): 9775 cm; total locomotor activity across Days 1–10 compared with Day 1 (IC rats, MPD 10 mg/kg once daily): no significant main effect of Day; Locomotor Activity Day 10, mean distance traveled (IC rats, MPD 10 mg/kg s.c. once daily): 28531 cm; Locomotor Activity Day 1, mean distance traveled (IC rats, MPD 10 mg/kg s.c.): 20653 cm; total locomotor activity across Days 1–10 compared with Day 1 (SC rats, MPD 3 mg/kg once daily): activity on Days 2–10 was greater than activity on Day 1; Locomotor Activity Day 10, mean distance traveled (SC rats, MPD 3 mg/kg s.c. once daily): 23675 cm; Locomotor Activity Day 1, mean distance traveled (SC rats, MPD 3 mg/kg s.c.): 15020 cm; total locomotor activity across Days 1–10 compared with Day 1 (SC rats, MPD 10 mg/kg once daily): locomotor activity on Days 3, 5–7 and 10 was greater than that on Day 1; Locomotor Activity Day 10, mean distance traveled (SC rats, MPD 10 mg/kg s.c. once daily): 31954 cm; Locomotor Activity Day 1, mean distance traveled (SC rats, MPD 10 mg/kg s.c.): 22406 cm
